Measured values from patent EP4772505A1, “COMPOUND FOR DEGRADING ANDROGEN RECEPTOR AND MEDICAL USE THEREOF” (Ubix Therapeutics, Inc., priority 2023, dated 2025).

Biological target: T1, Androgen Receptor (AR) (Homo sapiens, UniProt P10275)
T1 sequence (P10275 1-920): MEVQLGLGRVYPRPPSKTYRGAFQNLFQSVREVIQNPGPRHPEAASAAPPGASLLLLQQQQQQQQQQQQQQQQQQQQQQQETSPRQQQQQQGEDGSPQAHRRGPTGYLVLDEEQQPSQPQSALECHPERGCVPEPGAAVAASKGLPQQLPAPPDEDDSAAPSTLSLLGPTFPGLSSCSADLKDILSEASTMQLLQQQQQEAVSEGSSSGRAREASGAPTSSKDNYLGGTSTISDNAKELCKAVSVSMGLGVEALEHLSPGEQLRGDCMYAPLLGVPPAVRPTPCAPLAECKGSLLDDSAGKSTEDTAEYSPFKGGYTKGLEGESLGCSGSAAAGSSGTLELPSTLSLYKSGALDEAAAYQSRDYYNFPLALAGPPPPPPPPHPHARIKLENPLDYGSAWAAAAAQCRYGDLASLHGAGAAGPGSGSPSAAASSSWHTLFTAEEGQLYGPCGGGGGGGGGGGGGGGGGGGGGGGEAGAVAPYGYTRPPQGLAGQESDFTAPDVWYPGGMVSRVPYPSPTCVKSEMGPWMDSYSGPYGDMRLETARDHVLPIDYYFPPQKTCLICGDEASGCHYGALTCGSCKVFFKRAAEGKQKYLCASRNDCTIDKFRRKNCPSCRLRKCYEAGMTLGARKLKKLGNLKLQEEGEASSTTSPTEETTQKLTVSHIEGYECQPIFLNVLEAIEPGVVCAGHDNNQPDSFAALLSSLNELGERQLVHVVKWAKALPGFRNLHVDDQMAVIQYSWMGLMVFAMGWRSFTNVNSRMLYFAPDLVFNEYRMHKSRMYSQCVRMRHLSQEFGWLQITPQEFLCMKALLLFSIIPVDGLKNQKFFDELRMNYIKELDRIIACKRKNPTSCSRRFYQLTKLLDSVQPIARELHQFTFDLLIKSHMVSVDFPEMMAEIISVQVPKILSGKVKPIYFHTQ
Assay: Pharmacodynamic efficacy: AR degradation in tumor of VCaP xenograft model after oral administration
Assay type: in vivo, CB17/SCID mice
Parameters: After sacrifice, tumor tissue was collected, washed in PBS, and stored at -80°C; from tissue; host or cells: VCaP xenograft tumour from CB17/SCID mice
Conditions: 10 mg/kg orally once daily for three days, tumor collected 6 hours after final administration
Protocol: The protocol for the creation of a xenograft model and pharmacodynamic experiments using VCaP cells was as follows.
[Cell Culture] VCaP cells were resuspended at a density of 4 x 10^5/mL in a mixture of DMEM MEDIUM (Hyclone, SH30243.01), 10% FBS (Hyclone, SV30207.02), 1% Penicillin-streptomycin (Welgene, LS 202-02), and 1x Non-essential amino acid solution (100x) (Sigma, M7145-100mL). 50 mL of the cells were seeded into CELLBIND cell culture flasks (150 cm^2) (Corning, 3291) and cultured for 5 days.
[Xenotransplantation] The media was removed from the flask containing cultured VCaP cells and washed with 10 mL of PBS (Welgene, LB001-02). After removing the PBS, 2 mL of 1x 0.05% Trypsin-EDTA (Welgene, LS015-01) was added and treated in a cell incubator for 3 minutes. Then, 10 mL of media was added, pipetted, and placed in a 50 mL tube. The pellets were collected by centrifugation at 500 g for 5 minutes. The collected pellets were washed once more with 20 mL of PBS. The washed pellets were collected by centrifugation at 500 g for 5 minutes. The PBS was removed, and 500 µL of HBSS (Gibco, 14025092) was added and pipetted. After diluting 100-fold in HBSS and measuring the cell count, the concentration was calculated as 3 x 10^6/50 µL/mouse, diluted in HBSS, and stored in an ice bucket. An equal volume of matrigel (R&D system, 3432-005-01) was added to the stored cells, homogenized by pipetting, and then 100 µL per mouse was inoculated subcutaneously into the right flank of CB17/SCID mice.
[Measurement of tumor size and division into groups] After 2-3 weeks of inoculation with cancer cells, the transplanted cancer cells grew and were measured in size using a caliper. The measured tumor size was calculated as [long axis x short axis^2 x 0.5]. When the tumor size exceeded approximately […], the experimental animals were divided into groups based on the average tumor size and the concentration of the drug to be administered. The groups always included a group containing only the solvent (vehicle) without the drug.
[Drug Preparation and Administration] The drug was dissolved in a solvent and orally administered to each experimental animal in a volume of 200 µL (approximately 8 mL/kg). The solvent composition was 3% DMSO (Sigma, D8418), 10% Cremophor EL (Sigma, C5135), 20% PEG400 (Sigma, 06855-1KG), and 67% distilled water. The preparation method was as follows. Depending on the drug concentration (e.g., 10 or 30 mg/kg), each drug was weighed and dissolved in DMSO corresponding to 3% of the total solvent volume. […]
[Cancer Tissue Extraction] […] Changes in tumor size were measured during the prescribed administration period, and the mice were sacrificed 6 hours after the final administration. […]

Structure (SMILES) | AR degradation in tumor (%)
N#Cc1ccc(N2CCC(C(=O)Nc3ccc(OC4CCN(CC5CCN(c6ccc(NC7CCC(=O)NC7=O)cc6F)CC5)CC4)cn3)CC2)cc1C(F)(F)F (stereo not shown) [Example 1, 1-(4-cyano-3-(trifluoromethyl)phenyl)-N-(5-((1-((1-(4-((2,6-dioxopiperidin-3-yl)amino)-2-fluorophenyl)piperidin-4-yl)methyl)piperidin-4-yl)oxy)pyridin-2-yl)piperidine-4-carboxamide] | 86%
N#Cc1ccc(N2CCC(C(=O)Nc3ccc(OC4CCN(CC5CCN(c6ccc(N[C@H]7CCC(=O)NC7=O)cc6F)CC5)CC4)cn3)CC2)cc1C(F)(F)F [Example 2, (S)-1-(4-cyano-3-(trifluoromethyl)phenyl)-N-(5-((1-((1-(4-((2,6-dioxopiperidin-3-yl)amino)-2-fluorophenyl)piperidin-4-yl)methyl)piperidin-4-yl)oxy)pyridin-2-yl)piperidine-4-carboxamide] | 96%
N#Cc1ccc(N2CCC(C(=O)Nc3ccc(OC4CCN(CC5CCN(c6ccc(N[C@@H]7CCC(=O)NC7=O)cc6F)CC5)CC4)cn3)CC2)cc1C(F)(F)F [Example 3, (R)-1-(4-cyano-3-(trifluoromethyl)phenyl)-N-(5-((1-((1-(4-((2,6-dioxopiperidin-3-yl)amino)-2-fluorophenyl)piperidin-4-yl)methyl)piperidin-4-yl)oxy)pyridin-2-yl)piperidine-4-carboxamide] | 89%
N#Cc1ccc(N2CCC(C(=O)Nc3ccc(OC4CCN(CC5CCN(c6ccc(N[C@H]7CCC(=O)NC7=O)cc6F)CC5)CC4)cn3)CC2)cc1Cl [Example 9, (S)-1-(3-chloro-4-cyanophenyl)-N-(5-((1-((1-(4-((2,6-dioxopiperidin-3-yl)amino)-2-fluorophenyl)piperidin-4-yl)methyl)piperidin-4-yl)oxy)pyridin-2-yl)piperidine-4-carboxamide] | 97%
